{"source": "patent US9822105B2", "about": "“Diaminotriazine compounds as herbicides” (BASF SE, priority 2014, dated 2017)", "key": {"[1]": {"tested_on": "CHEAL", "test": "Greenhouse test, post-emergence treatment", "format": "in vivo, Chenopodium album", "settings": "0.0312 kg/ha", "description": "(§1) The seeds of the test plants were sown separately for each species. For the post-emergence treatment, the test plants were first grown to a height of […], depending on the plant habit, and only then treated with the active ingredients which had been suspended or emulsified in water. For this purpose, the test plants were either sown directly and grown in the same containers, or they were first grown separately as seedlings and transplanted into the test containers a few days prior to treatment. Depending on the species, the plants were kept at 10-25° C. or 20-35° C., respectively. The test period extended over 2 to 4 weeks. During this time, the plants were tended, and their response to the individual treatments was evaluated. Evaluation was carried out using a scale from 0 to 100. 100 means no emergence of the plants, or complete destruction of at least the aerial moieties, and 0 means no damage, or normal course of growth. […] The plants used in the greenhouse experiments were of the following species: [table]"}, "[2]": {"tested_on": "AMARE", "test": "Greenhouse test, post-emergence treatment", "format": "in vivo, Amaranthus retroflexus", "description": "as §1"}, "[3]": {"tested_on": "BRSNW", "test": "Greenhouse test, post-emergence treatment", "format": "in vivo, Winter rape", "settings": "0.0312 kg/ha", "description": "as §1"}, "[4]": {"tested_on": "AMARE", "test": "Greenhouse test, pre-emergence treatment", "format": "in vivo, Amaranthus retroflexus", "description": "(§2) The seeds of the test plants were sown separately for each species. For the pre-emergence treatment, the active ingredients, which had been suspended or emulsified in water, were applied directly after sowing by means of finely distributing nozzles. The containers were irrigated gently to promote germination and growth and subsequently covered with transparent plastic hoods until the plants had rooted. This cover caused uniform germination of the test plants, unless this had been impaired by the active ingredients. Depending on the species, the plants were kept at 10-25° C. or 20-35° C., respectively. The test period extended over 2 to 4 weeks. During this time, the plants were tended, and their response to the individual treatments was evaluated. Evaluation was carried out using a scale from 0 to 100. 100 means no emergence of the plants, or complete destruction of at least the aerial moieties, and 0 means no damage, or normal course of growth. […] The plants used in the greenhouse experiments were of the following species: [table]"}, "[5]": {"tested_on": "SETFA", "test": "Greenhouse test, pre-emergence treatment", "format": "in vivo, Setaria faberi", "settings": "0.5 kg/ha, SETFA", "description": "as §2"}, "[6]": {"tested_on": "ALOMY", "test": "Greenhouse test, pre-emergence treatment", "format": "in vivo, Alopecurus myosuroides", "description": "as §2"}, "[7]": {"tested_on": "APESV", "test": "Greenhouse test, pre-emergence treatment", "format": "in vivo, Apera spica-venti", "settings": "250 g/ha", "description": "as §2"}, "[8]": {"tested_on": "ABUTH", "test": "Greenhouse test, post-emergence treatment", "format": "in vivo, Abutilon theophrasti", "description": "as §1"}, "[9]": {"tested_on": "SETVI", "test": "Greenhouse test, post-emergence treatment", "format": "in vivo, Setaria viridis", "settings": "125 g/ha, STEVI", "description": "as §1"}, "[10]": {"settings": "500 g/ha, stated in words without grade"}}, "data": [{"smiles": "CC(C)(F)c1nc(N)nc(Nc2c(F)ccc3c2OCO3)n1", "note": "[Example 1, N2-(5-fluoro-1,3-benzodioxo1-4-yl)-6-(1-fluoro-1-methyl-ethyl)-1,3,5-triazine-2,4-diamine]", "values": [{"measurement": "herbicidal activity", "setting": "[1]", "value": "good (a good herbicidal activity is given at values of at least 70)"}, {"measurement": "herbicidal activity", "setting": "[2]; 0.0312 kg/ha", "value": "very good (a very good herbicidal activity is given at values of at least 85)"}, {"measurement": "herbicidal activity", "setting": "[3]", "value": "good (a good herbicidal activity is given at values of at least 70)"}]}, {"smiles": "CC(C)(F)c1nc(N)nc(Nc2c(Br)ccc3c2OCO3)n1", "note": "[Example 3]", "values": [{"measurement": "herbicidal activity", "setting": "[4]; 0.5 kg/ha", "value": "very good (a very good herbicidal activity is given at values of at least 85)"}, {"measurement": "herbicidal activity", "setting": "[5]", "value": "very good (a very good herbicidal activity is given at values of at least 85)"}, {"measurement": "herbicidal activity", "setting": "[6]; 0.5 kg/ha", "value": "very good (a very good herbicidal activity is given at values of at least 85)"}]}, {"smiles": "CC1(c2nc(N)nc(Nc3c(F)ccc4c3OCO4)n2)CCCCC1", "note": "[Example 6]", "values": [{"measurement": "herbicidal activity", "setting": "[7]", "value": "very good (a very good herbicidal activity is given at values of at least 85)"}, {"measurement": "pest or weed control at 250 g/ha", "setting": "[4]; Amaranthus retroflexus, read-out: herbicidal activity, 250 g/ha", "value": "≥ 70", "unit": "%"}, {"measurement": "herbicidal activity", "setting": "[6]; 250 g/ha", "value": "good (a good herbicidal activity is given at values of at least 70)"}]}, {"smiles": "Nc1nc(Nc2c(F)ccc3c2OCO3)nc(N2CCC2)n1", "note": "[Example 18]", "values": [{"measurement": "herbicidal activity", "setting": "[2]; [10]", "value": "herbicidal activity"}, {"measurement": "herbicidal activity", "setting": "[8]; [10]", "value": "herbicidal activity"}]}, {"smiles": "Nc1nc(Nc2c(F)ccc3c2OCO3)nc(N2CCCCC2)n1", "note": "[Example 21]", "values": [{"measurement": "herbicidal activity", "setting": "[2]; 500 g/ha", "value": "very good (a very good herbicidal activity is given at values of at least 85)"}, {"measurement": "herbicidal activity", "setting": "[8]; 500 g/ha", "value": "good (a good herbicidal activity is given at values of at least 70)"}]}, {"smiles": "CC(C)(F)c1nc(N)nc(Nc2c(F)c(F)cc3c2OCO3)n1", "note": "[Example 30]", "values": [{"measurement": "herbicidal activity", "setting": "[9]", "value": "very good (a very good herbicidal activity is given at values of at least 85)"}, {"measurement": "herbicidal activity", "setting": "[2]; 125 g/ha", "value": "very good (a very good herbicidal activity is given at values of at least 85)"}, {"measurement": "herbicidal activity", "setting": "[8]; 125 g/ha", "value": "very good (a very good herbicidal activity is given at values of at least 85)"}]}]}
